Assay results published in ChEMBL document CHEMBL4507276 (2021).

Experiments:
[1] = molecular target: GABA-A receptor; anion channel (Rattus norvegicus) (UniProt O09028+P15431+P18506+P18508+P19969+P20236+P23574+P23576+P28471+P28473+P30191+P62813+P63079+P63138+Q91ZM7+Q9ES14); conditions: Compound concentration 10.0 uM
[2] = molecular target: Neuropeptide Y receptor type 1 (Homo sapiens) (UniProt P25929); assay: Y1/HUM Cerep selectivity data (BI); conditions: filed as antagonist, Compound concentration 20.0 uM
[3] = system: Hepatocyte growth factor receptor (Homo sapiens), P08581 [M1250T]; assay: MET M1250T Invitrogen selectivity data (BI); conditions: Compound concentration 3.0 uM
[4] = molecular target: Tyrosine-protein kinase Fyn (Homo sapiens) (UniProt P06241); assay: FYN Invitrogen selectivity data (BI); conditions: Compound concentration 3.0 uM
Chain of Tyrosine-protein kinase Fyn (Homo sapiens) (P06241 2-537 limits assumed): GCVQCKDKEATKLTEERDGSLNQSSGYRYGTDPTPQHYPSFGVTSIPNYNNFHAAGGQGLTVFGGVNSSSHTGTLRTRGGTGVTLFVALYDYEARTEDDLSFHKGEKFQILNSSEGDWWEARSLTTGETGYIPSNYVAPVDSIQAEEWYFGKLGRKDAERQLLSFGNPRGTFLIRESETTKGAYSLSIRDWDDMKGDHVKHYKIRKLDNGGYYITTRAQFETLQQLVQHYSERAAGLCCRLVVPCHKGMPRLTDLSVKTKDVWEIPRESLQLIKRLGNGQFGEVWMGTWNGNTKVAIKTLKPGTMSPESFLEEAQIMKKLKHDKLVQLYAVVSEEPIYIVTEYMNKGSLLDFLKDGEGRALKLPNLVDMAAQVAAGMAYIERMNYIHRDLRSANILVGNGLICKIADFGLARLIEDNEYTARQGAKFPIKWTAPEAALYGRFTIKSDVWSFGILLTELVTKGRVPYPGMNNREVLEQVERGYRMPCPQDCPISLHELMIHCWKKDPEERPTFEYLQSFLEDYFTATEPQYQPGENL

[5] = molecular target: Nicotinic acetylcholine receptor alpha-1/beta-1 (Homo sapiens) (UniProt P02708+P11230); assay: NACH_BS_N/H Eurofins-Panlabs selectivity data (BI); type: protein-complex assay; conditions: Compound concentration 10.0 uM
[6] = molecular target: Histamine H2 receptor (Homo sapiens) (UniProt P25021); assay: H2/H Eurofins-Panlabs selectivity data (BI); conditions: Compound concentration 10.0 uM
[7] = molecular target: Catechol O-methyltransferase (Sus scrofa) (UniProt Q99028); assay: CATOMETHTRAN Cerep selectivity data (BI); conditions: Compound concentration 20.0 uM
Chain of Catechol O-methyltransferase (Sus scrofa) (Q99028 whole entry): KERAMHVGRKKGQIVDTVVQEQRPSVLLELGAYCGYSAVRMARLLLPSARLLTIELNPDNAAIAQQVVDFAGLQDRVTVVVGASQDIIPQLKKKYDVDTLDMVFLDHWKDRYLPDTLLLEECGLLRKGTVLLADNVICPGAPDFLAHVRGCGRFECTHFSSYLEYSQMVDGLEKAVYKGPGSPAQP

[8] = molecular target: SRSF protein kinase 1 (Homo sapiens) (UniProt Q96SB4); assay: SRPK1 Invitrogen selectivity data (BI); conditions: Compound concentration 3.0 uM
Chain of SRSF protein kinase 1 (Homo sapiens) (Q96SB4 whole entry): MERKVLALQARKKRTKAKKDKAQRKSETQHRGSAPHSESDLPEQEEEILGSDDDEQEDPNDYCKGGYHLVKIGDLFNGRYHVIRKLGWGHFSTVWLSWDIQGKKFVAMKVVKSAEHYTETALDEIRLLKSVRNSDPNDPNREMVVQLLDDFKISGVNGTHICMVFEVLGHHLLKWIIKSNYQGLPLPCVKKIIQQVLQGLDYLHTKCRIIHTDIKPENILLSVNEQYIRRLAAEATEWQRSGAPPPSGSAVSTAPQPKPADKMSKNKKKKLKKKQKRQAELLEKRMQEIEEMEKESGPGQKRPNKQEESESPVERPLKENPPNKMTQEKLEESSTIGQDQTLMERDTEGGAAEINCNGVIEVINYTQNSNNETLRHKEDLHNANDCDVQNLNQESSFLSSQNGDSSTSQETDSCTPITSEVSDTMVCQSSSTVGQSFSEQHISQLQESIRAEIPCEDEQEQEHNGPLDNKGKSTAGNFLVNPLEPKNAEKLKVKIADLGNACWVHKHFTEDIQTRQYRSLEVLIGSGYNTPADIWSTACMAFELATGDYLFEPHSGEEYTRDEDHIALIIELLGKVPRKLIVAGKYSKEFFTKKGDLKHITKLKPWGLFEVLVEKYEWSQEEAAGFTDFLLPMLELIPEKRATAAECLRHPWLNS

[9] = molecular target: Protein kinase C alpha type (Mus musculus) (UniProt P20444); assay: PHORBOLE/M Eurofins-Panlabs selectivity data (BI); conditions: Compound concentration 10.0 uM
[10] = molecular target: ALK tyrosine kinase receptor (Homo sapiens) (UniProt Q9UM73); assay: ALK Invitrogen selectivity data (BI); conditions: Compound concentration 3.0 uM
[11] = molecular target: Androgen receptor (Rattus norvegicus) (UniProt P15207); assay: TESTOST/RA Eurofins-Panlabs selectivity data (BI); conditions: Compound concentration 10.0 uM
Chain of Androgen receptor (Rattus norvegicus) (P15207 whole entry S389L): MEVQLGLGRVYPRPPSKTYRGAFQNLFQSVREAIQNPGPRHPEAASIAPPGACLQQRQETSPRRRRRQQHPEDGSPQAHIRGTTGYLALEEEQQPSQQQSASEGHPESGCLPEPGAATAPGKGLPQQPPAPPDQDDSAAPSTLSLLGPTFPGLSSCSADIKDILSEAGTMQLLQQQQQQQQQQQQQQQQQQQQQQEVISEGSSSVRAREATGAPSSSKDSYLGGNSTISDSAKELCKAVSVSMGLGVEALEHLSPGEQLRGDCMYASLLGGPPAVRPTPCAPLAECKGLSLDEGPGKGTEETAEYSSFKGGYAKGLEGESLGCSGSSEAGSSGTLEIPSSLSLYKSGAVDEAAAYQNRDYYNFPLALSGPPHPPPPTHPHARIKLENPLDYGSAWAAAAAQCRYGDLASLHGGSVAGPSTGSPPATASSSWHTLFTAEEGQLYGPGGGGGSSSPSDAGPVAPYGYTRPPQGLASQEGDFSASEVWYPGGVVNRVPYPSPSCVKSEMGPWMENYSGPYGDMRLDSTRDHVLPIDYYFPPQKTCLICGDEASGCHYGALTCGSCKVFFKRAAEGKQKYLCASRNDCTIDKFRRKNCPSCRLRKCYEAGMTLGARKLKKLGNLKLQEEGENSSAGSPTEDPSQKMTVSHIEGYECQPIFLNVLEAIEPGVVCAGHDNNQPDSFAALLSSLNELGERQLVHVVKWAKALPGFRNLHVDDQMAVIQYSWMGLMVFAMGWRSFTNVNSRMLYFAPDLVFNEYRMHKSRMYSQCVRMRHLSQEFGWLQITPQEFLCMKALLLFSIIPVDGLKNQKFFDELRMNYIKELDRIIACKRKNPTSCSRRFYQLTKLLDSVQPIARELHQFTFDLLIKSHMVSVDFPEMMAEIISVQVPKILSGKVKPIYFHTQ

[12] = molecular target: Adenosine receptor A2a (Homo sapiens) (UniProt P29274); assay: A2A/H Cerep selectivity data (BI); conditions: filed as antagonist, Compound concentration 20.0 uM
Chain of Adenosine receptor A2a (Homo sapiens) (P29274 whole entry): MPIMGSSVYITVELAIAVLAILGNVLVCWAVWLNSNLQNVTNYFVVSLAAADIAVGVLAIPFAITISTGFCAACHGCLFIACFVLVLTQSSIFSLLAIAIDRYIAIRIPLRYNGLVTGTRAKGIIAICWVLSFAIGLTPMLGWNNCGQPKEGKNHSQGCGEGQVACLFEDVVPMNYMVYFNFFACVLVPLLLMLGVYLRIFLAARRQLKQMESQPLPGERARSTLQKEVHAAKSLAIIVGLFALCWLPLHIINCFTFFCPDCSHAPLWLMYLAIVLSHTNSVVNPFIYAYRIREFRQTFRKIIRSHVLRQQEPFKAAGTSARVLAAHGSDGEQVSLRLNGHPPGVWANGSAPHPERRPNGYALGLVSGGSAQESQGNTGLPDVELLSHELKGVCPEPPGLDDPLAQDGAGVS

[13] = molecular target: T1, Ephrin type-B receptor 1 (Homo sapiens) (UniProt P54762); assay: EPHB1 Invitrogen selectivity data (BI); conditions: Compound concentration 3.0 uM
T1 sequence (whole entry): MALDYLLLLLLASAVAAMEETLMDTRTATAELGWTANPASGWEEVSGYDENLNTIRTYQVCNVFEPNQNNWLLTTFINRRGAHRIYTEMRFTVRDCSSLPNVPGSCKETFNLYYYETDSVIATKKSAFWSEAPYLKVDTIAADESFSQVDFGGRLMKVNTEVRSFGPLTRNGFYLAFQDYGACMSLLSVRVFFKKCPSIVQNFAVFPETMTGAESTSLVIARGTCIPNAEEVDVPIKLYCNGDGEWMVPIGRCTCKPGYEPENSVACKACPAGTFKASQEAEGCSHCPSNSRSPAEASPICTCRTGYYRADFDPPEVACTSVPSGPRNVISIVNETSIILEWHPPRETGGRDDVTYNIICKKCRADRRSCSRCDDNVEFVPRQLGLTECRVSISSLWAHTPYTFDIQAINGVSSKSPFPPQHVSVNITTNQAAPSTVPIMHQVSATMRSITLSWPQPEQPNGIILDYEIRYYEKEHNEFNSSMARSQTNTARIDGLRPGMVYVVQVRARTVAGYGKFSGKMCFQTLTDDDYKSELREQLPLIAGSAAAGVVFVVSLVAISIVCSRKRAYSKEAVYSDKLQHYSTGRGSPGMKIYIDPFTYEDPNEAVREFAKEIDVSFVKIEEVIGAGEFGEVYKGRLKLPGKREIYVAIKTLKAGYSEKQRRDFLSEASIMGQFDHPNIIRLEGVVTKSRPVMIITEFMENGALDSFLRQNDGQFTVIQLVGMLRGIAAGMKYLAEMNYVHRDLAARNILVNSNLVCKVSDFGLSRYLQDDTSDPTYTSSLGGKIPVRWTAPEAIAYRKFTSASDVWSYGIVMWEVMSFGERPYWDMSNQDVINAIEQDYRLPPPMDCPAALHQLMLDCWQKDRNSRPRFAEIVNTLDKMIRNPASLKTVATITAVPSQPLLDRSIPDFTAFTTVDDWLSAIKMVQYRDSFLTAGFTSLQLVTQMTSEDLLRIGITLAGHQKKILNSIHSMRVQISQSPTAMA

[14] = molecular target: T2, Tyrosine-protein kinase ZAP-70 (Homo sapiens) (UniProt P43403); assay: ZAP70 Invitrogen selectivity data (BI); conditions: Compound concentration 3.0 uM
T2 sequence (whole entry): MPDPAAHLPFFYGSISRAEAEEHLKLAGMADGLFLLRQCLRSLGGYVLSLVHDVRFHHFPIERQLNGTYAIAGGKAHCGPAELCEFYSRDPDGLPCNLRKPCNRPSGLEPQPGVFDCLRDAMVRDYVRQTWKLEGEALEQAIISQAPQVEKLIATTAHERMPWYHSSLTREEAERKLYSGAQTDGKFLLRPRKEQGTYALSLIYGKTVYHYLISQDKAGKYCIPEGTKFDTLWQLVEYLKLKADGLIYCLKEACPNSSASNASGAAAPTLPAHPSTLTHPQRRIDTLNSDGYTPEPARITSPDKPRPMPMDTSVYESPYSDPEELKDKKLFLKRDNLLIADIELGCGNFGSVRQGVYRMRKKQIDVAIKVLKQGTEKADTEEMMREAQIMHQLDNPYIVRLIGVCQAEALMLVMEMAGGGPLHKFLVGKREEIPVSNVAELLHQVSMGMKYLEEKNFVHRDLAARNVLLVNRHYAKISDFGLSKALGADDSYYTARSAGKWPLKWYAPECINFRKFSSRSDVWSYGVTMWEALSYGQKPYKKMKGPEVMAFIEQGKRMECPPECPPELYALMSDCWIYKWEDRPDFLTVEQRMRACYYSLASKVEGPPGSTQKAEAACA

[15] = molecular target: Phosphatidylinositol 4,5-bisphosphate 3-kinase catalytic subunit gamma isoform (Homo sapiens) (UniProt P48736); assay: PIK3CG Invitrogen selectivity data (BI); conditions: Compound concentration 3.0 uM
[16] = molecular target: Protein-tyrosine kinase 6 (Homo sapiens) (UniProt Q13882); assay: PTK6 Invitrogen selectivity data (BI); conditions: Compound concentration 3.0 uM
Chain of Protein-tyrosine kinase 6 (Homo sapiens) (Q13882 whole entry, looked up): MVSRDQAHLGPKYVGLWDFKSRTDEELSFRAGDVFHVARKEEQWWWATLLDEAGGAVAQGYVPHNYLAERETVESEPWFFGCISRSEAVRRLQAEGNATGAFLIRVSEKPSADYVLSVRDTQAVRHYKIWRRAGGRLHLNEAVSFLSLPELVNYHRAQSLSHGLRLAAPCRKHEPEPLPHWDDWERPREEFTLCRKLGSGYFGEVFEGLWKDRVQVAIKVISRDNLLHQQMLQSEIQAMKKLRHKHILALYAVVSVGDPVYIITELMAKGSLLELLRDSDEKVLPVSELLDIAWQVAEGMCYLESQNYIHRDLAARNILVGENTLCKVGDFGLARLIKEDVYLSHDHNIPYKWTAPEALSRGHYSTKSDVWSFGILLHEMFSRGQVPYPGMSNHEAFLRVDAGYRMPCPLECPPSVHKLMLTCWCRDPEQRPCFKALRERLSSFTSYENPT

[17] = molecular target: Gamma-aminobutyric acid receptor subunit alpha-1 (Rattus norvegicus) (UniProt P62813); assay: GABAA MUSCIMOL CENT Eurofins-Panlabs selectivity data (BI); conditions: Compound concentration 10.0 uM
Chain of Gamma-aminobutyric acid receptor subunit alpha-1 (Rattus norvegicus) (P62813 whole entry): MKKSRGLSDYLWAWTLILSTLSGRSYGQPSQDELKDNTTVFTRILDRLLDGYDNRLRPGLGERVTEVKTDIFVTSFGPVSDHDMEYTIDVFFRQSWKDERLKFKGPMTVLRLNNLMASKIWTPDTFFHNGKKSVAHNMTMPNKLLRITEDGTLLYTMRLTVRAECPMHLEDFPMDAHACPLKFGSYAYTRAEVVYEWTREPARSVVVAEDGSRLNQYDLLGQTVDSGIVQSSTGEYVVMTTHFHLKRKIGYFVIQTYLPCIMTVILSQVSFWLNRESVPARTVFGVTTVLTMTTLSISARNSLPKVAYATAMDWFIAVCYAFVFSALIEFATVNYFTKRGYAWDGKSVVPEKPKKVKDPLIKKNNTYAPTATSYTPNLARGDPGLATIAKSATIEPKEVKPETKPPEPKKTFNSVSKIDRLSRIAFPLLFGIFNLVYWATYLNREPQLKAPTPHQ

[18] = system: Tyrosine-protein kinase ABL1 (Homo sapiens), P00519 [T315I]; assay: ABL1 T315I Invitrogen selectivity data (BI); conditions: Compound concentration 3.0 uM
[19] = molecular target: Mitogen-activated protein kinase 11 (Homo sapiens) (UniProt Q15759); assay: MAPK11 Invitrogen selectivity data (BI); conditions: Compound concentration 3.0 uM
[20] = molecular target: Epidermal growth factor receptor (Homo sapiens) (UniProt P00533); assay: EGF/HU Eurofins-Panlabs selectivity data (BI); conditions: Compound concentration 10.0 uM
[21] = molecular target: Glutamate receptor ionotropic, kainate 1 (Rattus norvegicus) (UniProt P22756); assay: KAINATE/RA Cerep selectivity data (BI); conditions: Compound concentration 20.0 uM
[22] = molecular target: Casein kinase II subunit alpha (Homo sapiens) (UniProt P68400); assay: CSNK2A1 Invitrogen selectivity data (BI); conditions: Compound concentration 3.0 uM
[23] = molecular target: 5-hydroxytryptamine receptor 2B (Homo sapiens) (UniProt P41595); conditions: Compound concentration 10.0 uM
Chain of 5-hydroxytryptamine receptor 2B (Homo sapiens) (P41595 whole entry): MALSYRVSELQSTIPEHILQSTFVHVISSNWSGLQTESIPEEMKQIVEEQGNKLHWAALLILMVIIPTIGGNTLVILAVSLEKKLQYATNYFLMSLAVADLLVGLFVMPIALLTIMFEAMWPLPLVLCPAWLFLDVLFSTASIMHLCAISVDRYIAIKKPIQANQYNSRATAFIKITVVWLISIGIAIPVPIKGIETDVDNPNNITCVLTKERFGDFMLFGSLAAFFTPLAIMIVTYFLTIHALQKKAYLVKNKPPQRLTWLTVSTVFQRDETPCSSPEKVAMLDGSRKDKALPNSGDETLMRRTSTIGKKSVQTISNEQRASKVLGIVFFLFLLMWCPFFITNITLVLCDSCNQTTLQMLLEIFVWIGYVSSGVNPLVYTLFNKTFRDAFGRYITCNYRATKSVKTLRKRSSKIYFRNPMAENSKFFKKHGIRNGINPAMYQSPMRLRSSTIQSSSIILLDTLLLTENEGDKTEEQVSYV

CN(C)C(=O)Cn1cc(-c2nc(C3(c4ccc(-c5cnc(N)nc5)cc4)CC3)no2)cn1 [BI 0153]
inactive: inhibition [1] 6.54%

CN(C)C(=O)Cn1cc(-c2nc([C@@](C)(c3ccc(-c4cnc(N)nc4)cc3)C3CC3)no2)cn1 [BI 665915]
inactive: residual activity [2] 104% | residual activity [3] 105% | residual activity [4] 96.5% | residual activity [5] 99% | residual activity [6] 98% | residual activity [7] 99% | residual activity [8] 97.5% | residual activity [9] 104% | residual activity [10] 97% | residual activity [11] 99% | residual activity [12] 97% | residual activity [13] 93% | residual activity [14] 96% | residual activity [15] 104% | residual activity [16] 99.5% | residual activity [17] 100% | residual activity [18] 83% | residual activity [19] 93% | residual activity [20] 103% | residual activity [21] 82% | residual activity [22] 97% | inhibition [23] -5.4%
